Results on 54 molecules are retold here after ChEMBL document CHEMBL1144966, “Both 5-arylidene-2-thioxodihydropyrimidine-4,6(1H,5H)-diones and 3-thioxo-2,3-dihydro-1H-imidazo[1,5-a]indol-1-ones are light-dependent tumor necrosis factor-alpha antagonists” (Bioorg Med Chem Lett, 2003).

The structures appear in SMILES notation.

The target of assay [1] is T1, Tumor necrosis factor receptor superfamily member 1A (Homo sapiens) (UniProt P19438).
T1 sequence (whole entry): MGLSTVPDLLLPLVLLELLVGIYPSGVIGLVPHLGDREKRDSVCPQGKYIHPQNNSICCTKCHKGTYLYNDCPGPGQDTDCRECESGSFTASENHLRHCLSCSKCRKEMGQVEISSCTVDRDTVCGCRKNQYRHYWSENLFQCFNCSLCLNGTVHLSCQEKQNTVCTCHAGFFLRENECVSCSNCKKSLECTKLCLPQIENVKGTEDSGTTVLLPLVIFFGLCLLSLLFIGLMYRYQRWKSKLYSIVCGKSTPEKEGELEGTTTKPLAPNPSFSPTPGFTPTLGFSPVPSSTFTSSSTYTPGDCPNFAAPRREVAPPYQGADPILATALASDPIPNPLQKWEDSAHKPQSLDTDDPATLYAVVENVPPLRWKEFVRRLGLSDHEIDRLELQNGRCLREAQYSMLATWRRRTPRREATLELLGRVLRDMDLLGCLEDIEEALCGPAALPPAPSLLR
The assay can be described thus: Compound was tested for inhibition of TNF-alpha binding to TNFRc1 at a concentration of 10 uM.

For assay [2], the target named is T2, Tumor necrosis factor receptor superfamily member 1A (Homo sapiens, UniProt P19438).
T2 sequence (P19438 whole entry): T1 sequence (whole entry)
The assay can be described thus: Inhibition of TNF-alpha binding to TNFRc1.

Molecule `CCN1C(=O)C(=Cc2ccc3ccccc3n2)C(=O)N(CC)C1=S` showed an inhibition in assay [1] of 0%.
In assay [2], `CCN1C(=O)C(=Cc2c[nH]c3ccccc23)C(=O)N(CC)C1=S` returned an IC50 of 1 µM.
Same read-out and setting: the same measure for `CCN1C(=O)/C(=C/c2ccc(-c3cc(C(F)(F)F)nn3C)s2)SC1=S`: 0.14 µM; for `CCN1C(=O)c2cc3c(OC)cc(OCC(=O)OC(C)(C)C)cc3n2C1=S`: 0.39 µM.
On the same count and under the same terms, the same measure for `CCN1C(=O)C(=Cc2cn(C)c3ccccc23)C(=O)N(CC)C1=S`: 0.13 µM.
For the molecule `CCN1C(=O)C(=Cc2ccncc2)C(=O)N(CC)C1=S`, in assay [1], the inhibition amounted to 0%.
On the same count and under the same terms, the same measure for `CCN1C(=O)C(=Cc2ccc(-c3cc(C(F)(F)F)nn3C)s2)C(=O)N(CC)C1=S`: 33%.
Same read-out and setting: under `CCN1C(=O)C(=Cc2cc(Br)cs2)C(=O)N(CC)C1=S` stands 2%.
In assay [2], `CCN1C(=O)C(=Cc2ccc(C)s2)C(=O)N(CC)C1=S` had an IC50 of 3.4 µM.
Take `CCN1C(=O)C(=Cc2cc([N+](=O)[O-])cs2)C(=O)N(CC)C1=S`: the inhibition in assay [1] was found to be 0%.
On the same count and under the same terms, the same measure for `CCN1C(=O)C2Cc3c(OC)cc(OC)cc3N2C1=S` (centres undefined): 0%.
The molecule `COc1cc(OC)c2cc3n(c2c1)C(=S)N(CCc1ccccc1)C3=O` had a half-inhibitory concentration (IC50) in assay [2] of 1.9 µM.
Same read-out and setting: the same measure for `CCN1C(=O)C(=Cc2c[nH]c3ccc([N+](=O)[O-])cc23)C(=O)N(CC)C1=S`: 5.5 µM.
Molecule `O=C1C(=Cc2c[nH]c3ccccc23)C(=O)N(c2ccccc2)C(=S)N1c1ccccc1` had an inhibition in assay [1] of 9%.
Turning to `CCN1C(=O)C(=Cc2ccc(Br)s2)C(=O)N(CC)C1=S`, the IC50 in assay [2] worked out at 4.5 µM.
`O=C1C(=Cc2ccc(-c3ccccc3C(F)(F)F)o2)C(=O)N(c2ccccc2)C(=S)N1c1ccccc1` displayed an IC50 in assay [2] of 11 µM.
Consider `CCN1C(=O)C(=Cc2c[nH]c3ccc(OCc4ccccc4)cc23)C(=O)N(CC)C1=S`, for which the IC50 in assay [2] came out at 0.4 µM.
For the molecule `CCN1C(=O)C(=Cc2c[nH]c3c(C)cccc23)C(=O)N(CC)C1=S`, the concentration for half-maximal inhibition (IC50) in assay [2] turned out to be 0.6 µM.
Regarding `C=CCN1C(=O)c2c(C)c3c(OC)cc(OC)cc3n2/C1=N/C#N`, the inhibition in assay [1] is 19%.
`C=CCN1C(=O)c2cc3cc(OC)c(OC)cc3n2C1=S`: the inhibition in assay [1] is 53%.
In assay [2], `C=CCN1C(=O)c2cc3c(OC)c(OC)c(OC)cc3n2C1=S` showed an IC50 of 0.78 µM. That is a sub-micromolar value.
Take `Cc1ccccc1N1C(=O)/C(=C/c2c[nH]c3ccccc23)C(=O)NC1=S`: in assay [2], the IC50 came out at 1.8 µM.
On the same count and under the same terms, under `C=CCN1C(=O)c2c(C)c3c(OC)cc(OC)cc3n2C1=S` stands 1.1 µM.
Same read-out and setting: the same measure for `COC(=O)c1sccc1-c1ccc(C=C2C(=O)N(c3ccccc3)C(=S)N(c3ccccc3)C2=O)o1`: 40 µM.
In the case of `C=CCN1C(=O)n2c(cc3c(OC)cc(OC)cc32)C1=S`, the IC50 in assay [2] amounted to 0.61 µM.
`CCN1C(=O)C(=Cc2cn(C(C)=O)c3ccccc23)C(=O)N(CC)C1=S`: in assay [1], the inhibition is 15%.
As for `CCN1C(=O)C(=Cc2sccc2C)C(=O)N(CC)C1=S`, the IC50 in assay [2] was found to be 14.1 µM.
In assay [1], `CCN1C(=O)c2cc3c(OC)cc(OCC(=O)O)cc3n2C1=S` registered an inhibition of 42%.
Consider `CCN1C(=O)/C(=C/c2c[nH]c3ccccc23)SC1=S`, for which the inhibition in assay [1] came to 40%.
In assay [2], `CN1C(=O)C(=Cc2c[nH]c3ccccc23)C(=O)N(C)C1=S` showed an IC50 of 13 µM.
For `CCN1C(=O)c2cc3ccccc3n2C1=S`, in assay [1], the inhibition amounted to 27%.
On to `CCN1C(=O)/C(=C/c2ccc(-c3ccsc3C(=O)OC)o2)SC1=S`, for which the IC50 in assay [2] came out at 0.3 µM.
Same read-out and setting: under `CCN1C(=O)c2cc3c(OC)cc(OCOC)cc3n2C1=S` stands 0.28 µM; under `CCN1C(=O)/C(=C/c2ccc(-c3ccccc3C(F)(F)F)o2)SC1=S`, 0.32 µM.
In assay [2], `CCN1C(=O)c2cc3c(OC)cc(OCc4ccccn4)cc3n2C1=S` came in with a 50% inhibitory concentration (IC50) of 0.31 µM.
In assay [1], `CCN1C(=O)C(=Cc2cccnc2)C(=O)N(CC)C1=S` returned an inhibition of 0%.
With `C=CCN1C(=O)n2c(c(C)c3c(OC)cc(OC)cc32)C1=S`, the IC50 in assay [2] was determined as 0.21 µM. This counts as sub-micromolar.
On the same count and under the same terms, under `C=CCN1C(=O)c2cc3ccc(OC)cc3n2C1=S` stands 1.7 µM.
As for `COc1cc(OC)c2c(C)c3n(c2c1)C(=O)CN(Cc1ccccc1)C3=O`, the inhibition in assay [1] was found to be 0%.
On the same count and under the same terms, the same measure for `C=CCN1C(=O)c2cc3cc(Cl)ccc3n2C1=S`: 17%.
`CCN1C(=O)C(=Cc2ccc(-c3ccsc3C(=O)OC)o2)C(=O)N(CC)C1=S` yielded an IC50 in assay [2] of 2.8 µM.
On the same count and under the same terms, under `CCN1C(=O)C(=Cc2cc3ccccc3[nH]2)C(=O)N(CC)C1=S` stands 10.2 µM; under `C=CCN1C(=S)c2c(C)c3c(OC)cc(OC)cc3n2C1=S`, 0.21 µM; under `C=CCN1C(=O)c2cc3c(OC)cccc3n2C1=S`, 2.1 µM.
Still for that read-out and setting: under `Cc1ccccc1N1C(=O)C(=Cc2c[nH]c3ccccc23)C(=O)N(c2ccccc2C)C1=S` stands 0.79 µM.
For the molecule `CCN1C(=O)C(=Cc2ccccn2)C(=O)N(CC)C1=S`, the inhibition in assay [1] was found to be 0%.
Consider `CCN1C(=O)c2cc3c(OC)cc(OC)cc3n2C1=S`, for which the half-maximal inhibitory concentration (IC50) in assay [2] was found to be 1 µM. This lies in the single-digit micromolar range.
In turn, `C=CCN1C(=O)c2cc3c(OC)cc(OC)cc3n2C1=S` yielded a half-inhibitory concentration (IC50) in assay [2] of 0.28 µM.
Turning to `C=CCN1C(=O)c2cc3cc(OCc4ccccc4)ccc3n2C1=S`, in assay [1], the inhibition stood at 46%.
On the same count and under the same terms, the same measure for `C=CCN1C(=O)c2c(C)c3c(OC)cc(OC)cc3n2C1=O`: 0%; for `C=CCN1C(=O)c2cc3c(OC)cc(OC)cc3n2C1=O`: 0%.
For the molecule `COc1cc(OC)c2cc3n(c2c1)C(=S)N(CCCN1CCOCC1)C3=O`, the IC50 in assay [2] came out at 0.67 µM. In other words, the sub-micromolar range.
Same read-out and setting: under `CCN1C(=O)C(=Cc2ccc(-c3ccccc3C(F)(F)F)o2)C(=O)N(CC)C1=S` stands 2 µM.
For `CCN1C(=O)C(=Cc2cnc3ccccc3c2)C(=O)N(CC)C1=S`, in assay [1], the inhibition amounted to 0%.

By inhibition is commonly meant the drop in the measured response relative to a control, in per cent. Read a low inhibition as a response near the control. What is called IC50 is the concentration that gives 50% inhibition. A lower IC50 goes with inhibition by little substance.
